# Assay results reported in ChEMBL document CHEMBL1777767, “Efficient radiosynthesis of 2-[(18)f]fluoroadenosine: a new route to 2-[(18)f]fluoropurine nucleosides” (ACS Med Chem Lett, 2010).
# What was measured:
# Format in all cases: ADME, organism-based
# Details in all cases: in vivo, 1 h
# Spleen = assay: Biodistribution in Sprague-Dawley rat spleen at 10.36 to 13.69 MBq, iv after 60 mins by gamma counting
# Brain = assay: Biodistribution in Sprague-Dawley rat brain at 10.36 to 13.69 MBq, iv after 60 mins by gamma counting
# [1] = Biodistribution in Sprague-Dawley rat urine at 10.36 to 13.69 MBq, iv after 60 mins by gamma counting
# Blood = assay: Biodistribution in Sprague-Dawley rat blood at 10.36 to 13.69 MBq, iv after 60 mins by gamma counting
# Thymus = assay: Biodistribution in Sprague-Dawley rat thymus at 10.36 to 13.69 MBq, iv after 60 mins by gamma counting
# Intestine = assay: Biodistribution in Sprague-Dawley rat intestine at 10.36 to 13.69 MBq, iv after 60 mins by gamma counting
# Liver = assay: Biodistribution in Sprague-Dawley rat liver at 10.36 to 13.69 MBq, iv after 60 mins by gamma counting
# Lung = assay: Biodistribution in Sprague-Dawley rat lung at 10.36 to 13.69 MBq, iv after 60 mins by gamma counting
# Kidney = assay: Biodistribution in Sprague-Dawley rat kidney at 10.36 to 13.69 MBq, iv after 60 mins by gamma counting
# Heart = assay: Biodistribution in Sprague-Dawley rat heart at 10.36 to 13.69 MBq, iv after 60 mins by gamma counting
structure (smiles),measurement,setting,value
Nc1nc([18F])nc2c1ncn2[C@@H]1O[C@H](CO)[C@@H](O)[C@H]1O,Drug uptake,Spleen,2.85 % ID/g
same,Drug uptake,Brain,0.06 % ID/g
same,Drug uptake,[1],6.7 % ID/g
same,Drug uptake,Blood,0.47 % ID/g
same,Drug uptake,Thymus,0.65 % ID/g
same,Drug uptake,Intestine,1.45 % ID/g
same,Drug uptake,Liver,0.72 % ID/g
same,Drug uptake,Lung,9.15 % ID/g
same,Drug uptake,Kidney,3.75 % ID/g
same,Drug uptake,Heart,3.22 % ID/g
